Laboratory results from patent US11332463B2, “Spiropiperidine allosteric modulators of nicotinic acetylcholine receptors” (Merck Sharp & Dohme Corp., priority 2018, dated 2022).
Read-outs that look alike come from different tables or passages of the source.

Biological target: T1, human α7 nicotinic acetylcholine receptor (HEK cell line stably expressing human RIC-3 and human α7) (Homo sapiens, UniProt P36544)
T1 construct: host or cells: HEK cell line (PrecisION hnAChR α7/RIC-3)
Assay: Automated patch-clamp electrophysiology functional assay (Assay A), IonFlux HT, whole-cell population patch
Format: cell-based
Method: The α7 nAChR positive allosteric modulator (PAM) activity of the present compounds may be tested using assays known in the art. […] The assay was performed using the IonFlux HT in a whole-cell, population patch configuration. See Golden et al. Assay Drug Dev. Technol. […] The compounds were assessed for their ability to modulate the function of the human 7 nAChR stably expressed in a HEK cell line both in the presence, and in the absence of the natural 7 agonist acetylcholine. By performing a series of such measurements at different concentrations, the effective concentration of the 7 nAChR PAMs (EC50) was determined. See Spencer et al. Assay Drug Dev. Technol.
Direct activation of α7 (agonism), and potentiation of acetylcholine-evoked 7 currents was determined as follows:
Automated patch-clamp electrophysiology was performed using the IonFlux HT (Fluxion Biosciences Inc., San Francisco, Calif.) in the whole-cell, population patch configuration. Test compounds were assessed for their ability to modulate the function of the α7 nicotinic acetylcholine receptor both in the presence, and in the absence of the natural α7 agonist acetylcholine. […] Immediately prior to assay, cells were detached by first aspirating growth media, rinsing with Dulbecco's phosphate buffered saline, and then adding 10 mL of Accutase (Innovative Cell Technologies, San Diego, Calif.) to the flask and then incubating at 37° C. for 5 minutes. Detached cells were then recovered by the addition of 40 mL of CHO-serum-free media supplemented with 25 mM HEPES, and rocked gently in a 50 mL conical tube for 20 minutes prior to patch-clamp assay. After recovery, cells were pelleted by centrifugation at 1,000 RPM for 1 minute in a compact bench top centrifuge; recovery media was aspirated and cells were resuspended in external recording solution (150 mM NaCl, 5 mM KCl, 2 mM CaCl2), 1 mM MgCl2, 10 mM HEPES, 12 mM dextrose) to a density of 5.0×10^6 cells/mL. The cell suspension was added to the cell inlet wells on an IonFlux HT population patch plate which had previously been rinsed and primed with deionized H2O. Test compounds were serially diluted in DMSO and then resuspended to the final test concentration in external recording solution, with, or without 40 μM acetylcholine added to the external recording solution; test compounds were then transferred to the IonFlux HT population patch plate. Internal recording solution (110 mM TrisPO4, 28 mM TrisBase, 0.1 mM CaCl2, 2 mM MgCl2, 11 mM EGTA, 4 mM MgATP) was added to the internal recording solution inlet wells on the IonFlux HT patch plate previously loaded with cells and test compounds, and the plate loaded into the IonFlux HT instrument. A protocol was executed on the IonFlux HT to trap the cells, break into the cells, and establish the whole-cell recording configuration; cells were voltage-clamped at a holding potential of −60 mV for the duration of the experiment, all experiments were conducted at room temperature, and the IonFlux HT injection pressure was 8 psi for solution applications. Upon establishing the whole-cell configuration, external recording solution was perfused into the recording chambers for 120 seconds and then 40 μM acetylcholine was applied for 1 second and immediately washed off with external recording solution for 60 seconds. The 40 μM acetylcholine-evoked α7 current served as the current response to which subsequent test compound effects, in the presence, or in the absence of 40 μM acetylcholine would be quantified relative to. Next, test compounds were evaluated at multiple concentrations for their ability to induce, or modulate 7 current responses; three concentrations of test compound were evaluated in ascending dose fashion per recording.

[1] = HEK cells expressing human α7/RIC-3, test compound with or without 40 μM acetylcholine, holding potential −60 mV, room temperature, read-out: α7 nAChR Potency
[2] = automated patch-clamp electrophysiology functional assay (Assay A), read-out: α7 nAChR EC50

T1 sequence (P36544 23-502): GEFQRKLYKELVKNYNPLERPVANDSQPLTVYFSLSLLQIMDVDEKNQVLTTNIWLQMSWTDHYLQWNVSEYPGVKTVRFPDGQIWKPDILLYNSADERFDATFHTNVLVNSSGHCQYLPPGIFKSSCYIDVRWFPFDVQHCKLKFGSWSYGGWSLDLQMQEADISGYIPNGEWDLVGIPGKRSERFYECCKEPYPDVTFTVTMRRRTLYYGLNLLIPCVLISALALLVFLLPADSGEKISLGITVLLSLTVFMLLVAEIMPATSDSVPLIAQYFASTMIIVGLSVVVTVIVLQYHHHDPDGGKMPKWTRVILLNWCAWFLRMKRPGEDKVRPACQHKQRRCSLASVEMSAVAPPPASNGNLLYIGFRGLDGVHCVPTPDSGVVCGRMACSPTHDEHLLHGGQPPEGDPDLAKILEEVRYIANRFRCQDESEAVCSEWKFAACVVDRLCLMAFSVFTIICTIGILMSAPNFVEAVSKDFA

Row | Structure (SMILES) | EC50 [1] [nM] | EC50 [2] [nM]
1 | NS(=O)(=O)N1CCC2(CC1)[C@H](c1noc(-c3ccnnc3C3CC3)n1)C2(F)F [Example E49] | 100 to 500 | 270
2 | CCn1nc(-c2nc([C@@H]3CC34CCN(S(N)(=O)=O)CC4)no2)cc1C [Example 27, (1R)-1-[5-(1-Ethyl-5-methyl-TH-pyrazol-3-yl)-1,2,4-oxadiazol-3-yl]-6-azaspiro[2.5]octane-6-sulfonamide] | 500 to 5000 | 4000
3 | NS(=O)(=O)N1CCC2(CC2c2nc(-c3conc3C3CC3)no2)C(F)C1 (single isomer, unassigned) [Example I10] | 500 to 5000 | 3400
4 | NS(=O)(=O)N1CCC2(CC1)C[C@H]2c1noc(-c2cccc(C(F)(F)F)c2)n1 [Example D1] | 500 to 5000 | 520
5 | NS(=O)(=O)N1CCC2(CC1)C[C@H]2c1noc(-c2ccn(CC(F)(F)F)n2)n1 [Example E25] | 500 to 5000 | 2200
6 | NS(=O)(=O)N1CCC2(CC2c2nc(-c3conc3C3CC3)no2)C(F)C1 (single isomer, unassigned) [Example I7] | 500 to 5000 | 1500
7 | NS(=O)(=O)N1CCC2(CC1)C[C@H]2c1noc(-c2cc(Br)ccc2C(F)(F)F)n1 [Example D6] | 100 to 500 | 
8 | NS(=O)(=O)N1CCC2(CC1)C[C@H]2c1noc(-c2ccccc2OCC(F)(F)F)n1 [Example D18] | 100 to 500 | 160
9 | NS(=O)(=O)N1CCC2(CC1)C(c1nc(-c3ccccc3)no1)C2(F)F (stereo not shown) [Example A2] | 100 to 500 | 320
10 | Cc1ncc(C(F)(F)F)cc1-c1nc([C@@H]2CC23CCN(S(N)(=O)=O)CC3)no1 [Example E61] | 500 to 5000 | 1500
11 | NS(=O)(=O)N1CCC2(CC1)C[C@H]2c1noc(-c2cccnc2C(F)(F)F)n1 [Example E58] | 500 to 5000 | 3400
12 | COc1ccc(Cl)cc1-c1noc(C2CC23CCN(C(=O)NCc2ccccc2)CC3)n1 (racemic) [Example B13] | 5000 to 50000 | 5100
13 | NS(=O)(=O)N1CCC2(CC1)[C@H](c1ccn(-c3ccc(F)cc3C(F)(F)F)n1)C2(F)F (stereo in doubt) [Example 36, 1,1-Difluoro-2-{1-[4-fluoro-2-(trifluoromethyl)phenyl]-1H-pyrazol-3-yl}-6-azaspiro[2.5]octane-6-sulfonamide] | 500 to 5000 | 890
14 | Cc1ccccc1-c1nnc([C@H]2C(F)(F)C23CCN(S(N)(=O)=O)CC3)s1 [Example H6] | 500 to 5000 | 3400
15 | NS(=O)(=O)N1CCC2(CC1)C[C@H]2c1noc(-c2ccccc2OC(F)(F)F)n1 [Example D20] | 100 to 500 | 200
16 | NS(=O)(=O)N1CCC2(CC1)C[C@H]2c1noc(-c2c(F)cccc2C(F)(F)F)n1 [Example D12] | 500 to 5000 | 1200
17 | COc1ccc(Cl)cc1-c1noc(C2CC23CCN(S(=O)(=O)c2ccc4ncsc4c2)CC3)n1 (racemic) [Example B7] | 500 to 5000 | 3300
18 | NS(=O)(=O)N1CCC2(CC1)[C@H](c1nc(-c3ccc(F)cc3C(F)(F)F)co1)C2(F)F [Example G10] | < 100 | 28
19 | Cc1ccc(C(F)(F)F)nc1-c1nc([C@@H]2CC23CCN(S(N)(=O)=O)CC3)no1 [Example E19] | 100 to 500 | 290
20 | NS(=O)(=O)N1CCC2(CC1)C[C@H]2c1noc(-c2cnn(CC(F)(F)F)c2)n1 [Example E22] | 500 to 5000 | 3000
21 | NS(=O)(=O)N1CCC2(C(F)C1)C(c1nc(-c3conc3C3CC3)no1)C2(F)F (mixture of isomers) [Example I11] | 500 to 5000 | 820
22 | COc1ccc(Cl)cc1-c1nc(C2CC23CCN(S(C)(=O)=O)CC3)no1 (racemic) [Example J1] | 500 to 5000 | 760
23 | Cc1onc(C2CC2)c1-c1noc(C2C(F)(F)C23CCN(S(N)(=O)=O)CC3)n1 (stereo not shown) [Example C5] | < 100 | 11

Row | Structure (SMILES) | EC50 [1] [nM] | EC50 [2] [nM]
24 | NS(=O)(=O)N1CCC2(CC1)C[C@H]2c1noc(-c2ccccc2-n2cccn2)n1 [Example E77] | 500 to 5000 | 850
25 | NS(=O)(=O)N1CCC2(CC1)[C@H](c1noc(-c3c(C(F)(F)F)cnn3C3CC3)n1)C2(F)F [Example E48] | < 100 | 60
26 | NS(=O)(=O)N1CCC2(CC1)C(c1nc(-c3ccn4ccnc4c3)no1)C2(F)F (stereo not shown) [Example C11] | 500 to 5000 | 2500
27 | NS(=O)(=O)N1CCC2(CC1)C[C@H]2c1noc(-c2conc2C2CC2)n1 [Example E26] | 500 to 5000 | 570
28 | NS(=O)(=O)N1CCC2(CC1)C(c1nc(-c3ccnn3C3CC3)no1)C2(F)F (stereo not shown) [Example C14] | 100 to 500 | 150
29 | COc1ccc(Cl)cc1-c1noc(C2CC23CCN(S(=O)(=O)CCc2ccccc2)CC3)n1 (racemic) [Example B5] | 500 to 5000 | 3000
30 | Cc1cccc(C)c1Cc1nc([C@@H]2CC23CCN(S(N)(=O)=O)CC3)no1 [Example E6] | 500 to 5000 | 930
31 | Cn1ncc(C(F)(F)F)c1-c1nc([C@@H]2CC23CCN(S(N)(=O)=O)CC3)no1 [Example E32] | 100 to 500 | 330
32 | NS(=O)(=O)N1CCC2(CC2c2nc(-c3ccccc3)no2)C(F)(F)C1 (single isomer, unassigned) [Example I3] | 500 to 5000 | 2300
33 | CCn1cc(-c2nc([C@@H]3C(F)(F)C34CCN(S(N)(=O)=O)CC4)no2)c(C2CC2)n1 [Example E37] | < 100 | 78
34 | NS(=O)(=O)N1CCC2(CC1)[C@H](c1noc(-c3cnn4c3CCCC4)n1)C2(F)F [Example E40] | 500 to 5000 | 840
35 | Cc1noc(C)c1-n1cc([C@@H]2CC23CCN(S(N)(=O)=O)CC3)cn1 [Example G3] | 500 to 5000 | 
36 | NS(=O)(=O)N1CCC2(CC1)[C@H](c1noc(-c3ccnc(OC4CC4)c3)n1)C2(F)F [Example E33] | 100 to 500 | 470
37 | NS(=O)(=O)N1CCC2(CC1)C[C@H]2c1nnc(-c2ccccc2OCC(F)(F)F)s1 [Example F7] | 100 to 500 | 480
38 | NS(=O)(=O)N1CCC2(CC1)C[C@H]2c1nc(-c2ccccc2)co1 [Example G1] | 500 to 5000 | 4000
39 | COc1ccc(Cl)cc1-c1noc(C2CC23CCN(S(=O)(=O)c2cccc4nonc24)CC3)n1 (racemic) [Example B6] | 500 to 5000 | 
40 | Cc1ccccc1-c1noc([C@H]2C(F)(F)C23CCN(S(N)(=O)=O)CC3)n1 [Example H5] | 500 to 5000 | 
41 | Cc1onc(-c2nc([C@@H]3CC34CCN(S(N)(=O)=O)CC4)no2)c1C [Example E27] | 500 to 5000 | 1300
42 | NS(=O)(=O)N1CCC2(CC1)[C@H](c1coc(-c3ccc(F)cc3C(F)(F)F)n1)C2(F)F [Example 24, (2R)-1,1-Difluoro-2-{2-[4-fluoro-2-(trifluoromethyl)phenyl]-1,3-oxazol-4-yl}-6-azaspiro[2.5]octane-6-sulfonamide] | < 100 | 90
43 | NS(=O)(=O)N1CCC2(CC1)C[C@H]2c1noc(C2CCc3c(F)cccc32)n1 (mixture of isomers) [Example E13] | 500 to 5000 | 1300
44 | NS(=O)(=O)N1CCC2(CC1)C[C@H]2c1noc(-c2cnccc2C(F)(F)F)n1 [Example E57] | 500 to 5000 | 
45 | Cc1cnn(C)c1-c1nc([C@@H]2CC23CCN(S(N)(=O)=O)CC3)no1 [Example E52] | 500 to 5000 | 1700
